IC50 data for 30 molecules are collected here from patent publication US20080194574A1, “Pyrazine Derivatives As Effective Compounds Against Infectious Diseases” (AXXIMA PHARMACEUTICALS AG, priority 2003, published 2008).

Each structure is given as a SMILES string. pIC50: −log10 of the molar value. Where only a bound is given, the exact number is not on record here.

One test deals with T1, viral kinase pUL-97 (Human cytomegalovirus, UniProt P16788).
T1 construct: The pUL-97 gene was cloned into a baculovirus vector; GST (glutathione S-transferase) (N); made in house; host or cells: Sf9 insect cells, baculovirus
T1 sequence (P16788 whole entry): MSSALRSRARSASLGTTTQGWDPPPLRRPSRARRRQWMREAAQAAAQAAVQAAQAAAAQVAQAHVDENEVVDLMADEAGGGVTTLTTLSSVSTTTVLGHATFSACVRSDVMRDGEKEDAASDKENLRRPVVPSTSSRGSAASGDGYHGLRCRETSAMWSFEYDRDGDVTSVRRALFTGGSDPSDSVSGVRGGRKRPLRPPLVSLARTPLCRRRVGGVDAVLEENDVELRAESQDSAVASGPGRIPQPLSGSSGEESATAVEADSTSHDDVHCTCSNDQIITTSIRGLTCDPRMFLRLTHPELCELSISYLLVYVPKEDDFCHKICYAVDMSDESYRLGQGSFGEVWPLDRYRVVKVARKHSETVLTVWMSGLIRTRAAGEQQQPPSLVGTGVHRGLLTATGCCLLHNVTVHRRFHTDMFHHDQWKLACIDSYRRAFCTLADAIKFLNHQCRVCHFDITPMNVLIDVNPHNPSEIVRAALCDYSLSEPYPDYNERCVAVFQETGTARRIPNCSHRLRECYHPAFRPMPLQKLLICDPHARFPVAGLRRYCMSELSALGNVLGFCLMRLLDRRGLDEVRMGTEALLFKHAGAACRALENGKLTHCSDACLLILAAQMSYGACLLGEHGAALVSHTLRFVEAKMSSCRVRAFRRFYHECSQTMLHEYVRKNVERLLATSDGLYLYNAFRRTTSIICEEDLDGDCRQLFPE
Description: UL97 kinase assay on Immobilon plate. The class given is biochemical. The settings on record: inhibition of UL 97 kinase activity; class by IC50 / % inhibition at 10 μM or 100 μM; read-out: Activity Class [A, B, C]. The protocol:
UL97 Kinase-Assay on Immobilon Plate
The effect of pyrazine derivatives of this invention was tested on the activity of the viral kinase pUL-97. This kinase is derived from human cytomegalovirus (HCMV) (M. Marschall et al., Journal of General Virology, 2001, 82, 1439-1450). The pUL-97 gene was cloned into a baculovirus vector in order to produce GST (glutathione S-transferase) fusion protein. Insect cells (Sf9) were infected and GST-UL-97 purified via glutathione affinity columns according to standard procedures.
The pUL-97 kinase reaction was performed as described (M. Marschall et al., Journal of General Virology, 2001, 82, 1439-1450). Briefly, 10 μl Assay buffer (3 μM ATP, 60 μg/ml myelin basic protein (MBP) as substrate), 1.0 μCi γ-[^33P]ATP and 10 μl Basic buffer (20 mM Tris-HCl pH7.5, 0.5 mM MnCl2, 1 mM DTT (Dithiothreitol)) were given to the test tube before adding various concentrations of pyrazine derivatives. The reaction was started by adding 0.2 μl pUL-97 kinase, purified from infected Sf9-insect cells as described above. The total volume was adjusted with Basic buffer to a final volume of 30 μl. The reaction mix was incubated for 1 hr at 30° C. For negative control, 10 μl 0.1M EDTA (Ethylene Diamine tetraacetate) was added to reaction mix before addition of pUL-97 protein kinase. The reaction was stopped by addition of 10 μl 0.1 M EDTA.
Measuring Incorporation of Radioactivity:
The Immobilon plate (Millipore) was rinsed with 50 μl methanol/well. Following addition of 100 μl 0.1 M EDTA, 20 μl of each kinase reaction mix was added to one well of the Immobilon plate. Each well was washed 4× with 250 μl 0.75% phosphoric acid and 1× with 50 μl methanol. After addition of 50 μl scintillation cocktail (Roth, Germany) per well incorporation of radioactivity was measured using a Betareader (Wallac) and enzymatic activity calculated.
On to `CSc1ccc(-c2cncc(N3CCN(c4cnccn4)CC3)n2)cc1` [compound 314, 6-(4-Methylsulfanyl-phenyl)-2′,3′,5′,6′-tetrahydro-[2,1′;4′,2″]terpyrazine], for which the pIC50 was 5.00 to 6.00.

`Cc1ccc(N2CCN(c3cncc(-c4ccc5ccccc5c4)n3)CC2)cc1C` [compound 335, 4-(3,4-Dimethyl-phenyl)-6′-naphthalen-2-yl-3,4,5,6-tetrahydro-2H-[1,2′]bipyrazinyl]: the pIC50 is 5.00 to 6.00.

With `c1ccc2c(-c3cncc(N4CCN(c5cnccn5)CC4)n3)cccc2c1` [compound 331, 6-Naphthalen-1-yl-2′,3′,5′,6′-tetrahydro-[2,1′;4′,2″]terpyrazine], the pIC50 is 4.00 to 5.00.

In the case of `Fc1ccccc1N1CCN(c2cncc(-c3ccc(C(F)(F)F)cc3)n2)CC1` [compound 197, 4-(2-Fluoro-phenyl)-6′-(4-trifluoromethyl-phenyl)-3,4,5,6-tetrahydro-2H-[1,2′]bipyrazinyl], the pIC50 is 5.00 to 6.00.

Regarding `CSc1ccccc1-c1cncc(N2CCN(c3ccccn3)CC2)n1` [compound 342, 6′-(2-Methylsulfanyl-phenyl)-4-pyridin-2-yl-3,4,5,6-tetrahydro-2H-[1,2′]bipyrazinyl], the pIC50 was 4.00 to 5.00.

Take `CC(=O)c1ccc(N2CCN(c3cncc(-c4ccc(C(C)(C)C)cc4)n3)CC2)cc1` [compound 204, 1-{4-[6′-(4-tert-Butyl-phenyl)-2,3,5,6-tetrahydro-[1,2′]bipyrazinyl-4-yl]-phenyl}-ethanone]: the pIC50 was 4.00 to 5.00.

`COc1ccc(Cl)cc1-c1cncc(N2CCN(c3ccncc3)CC2)n1` [compound 259, 6′-(5-Chloro-2-methoxy-phenyl)-4-pyridin-4-yl-3,4,5,6-tetrahydro-2H-[1,2′]bipyrazinyl]: the pIC50 was 4.00 to 5.00.

In the case of `COc1cccc(N2CCN(c3cncc(-c4ccoc4)n3)CC2)c1` [compound 324, 6′-Furan-3-yl-4-(3-methoxy-phenyl)-3,4,5,6-tetrahydro-2H-[1,2′]bipyrazinyl], the pIC50 was 4.00 to 5.00.

Consider `c1ccc(N2CCN(c3cncc(-c4cccc5ccccc45)n3)CC2)cc1` [compound 246, 6′-Naphthalen-1-yl-4-phenyl-3,4,5,6-tetrahydro-2H-[1,2′]bipyrazinyl], for which the pIC50 is 4.00 to 5.00.

In the case of `COc1cccc(N2CCN(c3cncc(-c4ccc(SC)cc4)n3)CC2)c1` [compound 369, 4-(3-Methoxy-phenyl)-6′-(4-methylsulfanyl-phenyl)-3,4,5,6-tetrahydro-2H-[1,2′]bipyrazinyl], the pIC50 was 5.00 to 6.00.

On to `Cc1ccc(N2CCN(c3cncc(-c4csc5ccccc45)n3)CC2)cc1C` [compound 317, 6′-Benzo[b]thiophen-3-yl-4-(3,4-dimethyl-phenyl)-3,4,5,6-tetrahydro-2H-[1,2′]bipyrazinyl], for which the pIC50 is 4.00 to 5.00.

Turning to `Fc1ccc(-c2cncc(N3CCN(c4ccc(C(F)(F)F)cc4)CC3)n2)cc1` [compound 309, 6′-(4-Fluoro-phenyl)-4-(4-trifluoromethyl-phenyl)-3,4,5,6-tetrahydro-2H-[1,2′]bipyrazinyl], the pIC50 was 4.00 to 5.00.

Take `CC(C)(C)c1ccc(-c2cncc(N3CCN(c4ccncc4)CC3)n2)cc1` [compound 257, 6′-(4-tert-Butyl-phenyl)-4-pyridin-4-yl-3,4,5,6-tetrahydro-2H-[1,2′]bipyrazinyl]: the pIC50 was 5.00 to 6.00.

For `Cc1ccc(-c2cncc(N3CCN(c4ccccc4)CC3)n2)cc1` [compound 245, 4-Phenyl-6′-p-tolyl-3,4,5,6-tetrahydro-2H-[1,2′]bipyrazinyl], the pIC50 is 5.00 to 6.00.

Still in this test, the particulars now being: inhibition of UL 97 kinase activity; class by IC50 / % inhibition at 10 or 100 μM; read-out: Activity Class [A, B, C].
For the molecule `NC(=O)c1ccc(-c2cnc(N)c(N3CCN(c4ccncc4)CC3)n2)cc1` [compound 74, 4-(3′-Amino-4-pyridin-4-yl-3,4,5,6-tetrahydro-2H-[1,2′]bipyrazinyl-6′-yl)-benzamide], the pIC50 is 5.00 to 6.00.

On to `Cc1ccc(-c2cncc(N3CCN(c4ccccn4)CC3)n2)cc1C` [compound 50, 6′-(3,4-Dimethyl-phenyl)-4-pyridin-2-yl-3,4,5,6-tetrahydro-2H-[1,2′]bipyrazinyl], for which the pIC50 is 5.00 to 6.00.

As for `FC(F)(F)c1cc(-c2cncc(N3CCN(c4ccccc4)CC3)n2)cc(C(F)(F)F)c1` [compound 191, 6′-(3,5-Bis-trifluoromethyl-phenyl)-4-phenyl-3,4,5,6-tetrahydro-2H-[1,2′]bipyrazinyl], the pIC50 is 4.00 to 5.00.

For the molecule `NC(=O)c1ccc(-c2cncc(NCCc3c[nH]c4ccccc34)n2)cc1` [compound 35, 4-{6-[2-(1H-Indol-3-yl)-ethylamino]-pyrazin-2-yl}-benzamide], the pIC50 was above 6.00.

`c1ccc(N2CCN(c3cncc(-c4ccc5ccccc5c4)n3)CC2)cc1` [compound 93, 6′-Naphthalen-2-yl-4-phenyl-3,4,5,6-tetrahydro-2H-[1,2′]bipyrazinyl]: the pIC50 was 5.00 to 6.00.

Regarding `NCc1ccc(-c2cncc(N3CCN(C(=O)c4ccco4)CC3)n2)cc1` [compound 59, [6′-(4-Aminomethyl-phenyl)-2,3,5,6-tetrahydro-[1,2′]bipyrazinyl-4-yl]-furan-2-yl-methanone], the pIC50 is 4.00 to 5.00.

With `CSc1ccc(-c2cncc(N3CCN(c4ccncc4)CC3)n2)cc1` [compound 66, 6′-(4-Methylsulfanyl-phenyl)-4-pyridin-4-yl-3,4,5,6-tetrahydro-2H-[1,2′]bipyrazinyl], the pIC50 was above 6.00.

For `CCOc1ccc(-c2cncc(N3CCN(c4ccccc4F)CC3)n2)cc1` [compound 127, 6′-(4-Ethoxy-phenyl)-4-(2-fluoro-phenyl)-3,4,5,6-tetrahydro-2H-[1,2′]bipyrazinyl], the pIC50 is 4.00 to 5.00.

`COc1cccc(-c2cncc(N3CCN(c4ccccc4F)CC3)n2)c1` [compound 113, 4-(2-Fluoro-phenyl)-6′-(3-methoxy-phenyl)-3,4,5,6-tetrahydro-2H-[1,2′]bipyrazinyl]: the pIC50 is 5.00 to 6.00.

Regarding `Fc1ccc(N2CCN(c3cncc(-c4ccc(F)c(Cl)c4)n3)CC2)c(F)c1` [compound 145, 6′-(3-Chloro-4-fluoro-phenyl)-4-(2,4-difluoro-phenyl)-3,4,5,6-tetrahydro-2H-[1,2′]bipyrazinyl], the pIC50 is 4.00 to 5.00.

Turning to `COc1ccc(N2CCN(c3cncc(-c4ccc(CN)cc4)n3)CC2)cc1OC` [compound 60, 4-[4-(3,4-Dimethoxy-phenyl)-3,4,5,6-tetrahydro-2H-[1,2′]bipyrazinyl-6′-yl]-benzylamine], the pIC50 is 4.00 to 5.00.

Turning to `Clc1cccc(N2CCN(c3cncc(-c4ccsc4)n3)CC2)c1` [compound 80, 4-(3-Chloro-phenyl)-6′-thiophen-3-yl-3,4,5,6-tetrahydro-2H-[1,2′]bipyrazinyl], the pIC50 was 4.00 to 5.00.

Regarding `COc1ccccc1N1CCN(c2cncc(-c3ccc(F)cc3)n2)CC1` [compound 106, 6′-(4-Fluoro-phenyl)-4-(2-methoxy-phenyl)-3,4,5,6-tetrahydro-2H-[1,2′]bipyrazinyl], the pIC50 was 5.00 to 6.00.

As to `NC(=O)c1cccc(-c2cncc(N3CCN(c4ccncc4)CC3)n2)c1` [Comp. 71, 3-(4-Pyridin-4-yl-3,4,5,6-tetrahydro-2H-[1,2′]bipyrazinyl-6′-yl)-benzamide], the pIC50 is 5.00 to 6.00.

On to `COc1cccc(-c2cncc(N3CCN(c4ccc(OC)c(OC)c4)CC3)n2)c1` [compound 134, 4-(3,4-Dimethoxy-phenyl)-6′-(3-methoxy-phenyl)-3,4,5,6-tetrahydro-2H-[1,2′]bipyrazinyl], for which the pIC50 is 5.00 to 6.00.

For `c1ccc(-c2cncc(N3CCN(c4ccccn4)CC3)n2)cc1` [compound 49], the pIC50 is 5.00 to 6.00.
